Measured values as given in patent US20240156832A1, “METHODS OF METABOLIZING METOPIMAZINE AND ITS SALTS” (Neurogastrx, Inc., priority 2020, published 2024).
“Also recorded” adds a separate entry of the source.

Key:
[1] = both, human, in vivo, po, 60 mg
Method: The clinical study was conducted at Biotrial Rennes (Rennes, France), in accordance with the Declaration of Helsinki. The study (NG100-101) was a double-blind, placebo-controlled, ascending single- and multiple-dose study of the safety, tolerability, and pharmacokinetics of metopimazine administered orally to healthy adult subjects. The study protocol, informed consent form, and appropriate related documents were approved by the institutional review board, and all subjects provided written informed consent prior to participation in the study.
In this study, sequential ascending single doses were administered to 4 cohorts of 8 participants (6 actives and 2 placebos per cohort, in cohorts 1, 2 and 3 following a randomization 6:2 and in cohort 4 with a 1:1 randomization for the two sentinel participants. In the morning, after at least 10 hours of fasting overnight, eight healthy adult subjects (male or female aged 18 to 45), were orally administered metopimazine (or a matching placebo). Cohort 1-4 received a matching placebo or ascending doses of Vogalene (metopimazine) capsules at the doses of 15 mg, 30 mg, 45 mg, or 60 mg, respectively. […] Plasma concentrations of metopimazine, metopimazine acid and metopimazine sulfoxide were quantified using LC-MS/MS methods. […]

human D2 receptor = human D2 receptor (Homo sapiens, UniProt P14416); conditions: relative to MPZ; cited from earlier work
[2] = tested on: human microsomal liver amidase; assay: Incubations with HLM for microsomal hydrolase/amidase activity; assay type: in vitro ADME; conditions: HLM, 10 μM MPZ, 60 min, pH 7.4, 8.4 and 9.4
Method: Incubations with HLM for Microsomal Hydrolase/Amidase Activity Prior to the reaction for amidase activity, the reaction mixture containing KPi buffer (pH 7.4, 8.4, or 9.4) and HLM was pre-incubated at 50° C. for 5 minutes to inactivate CYP and FMO activities in HLM. The mixture was placed on ice to cool down. An aliquot was taken out which was considered as t=0 min incubation. Then 10 μM MPZ was added into the remaining mixture and incubated at 37° C. on an orbital shaker for 60 minutes. A parallel set of incubations was conducted with 10 μM MPZ in the presence at 2 and 16 μM, of BNPP (a known inhibitor of amidase). All reactions were in triplicate. The total percentage of organic solvent in incubation mixture was ≤0.1%. The reactions were terminated by the addition of chilled acetonitrile: methanol, 90:10, (v/v). The samples were vortex-mixed and stored at ≤−70° C. and were subjected analyzed by LC MS/MS.

Chain of human D2 receptor (P14416 whole entry): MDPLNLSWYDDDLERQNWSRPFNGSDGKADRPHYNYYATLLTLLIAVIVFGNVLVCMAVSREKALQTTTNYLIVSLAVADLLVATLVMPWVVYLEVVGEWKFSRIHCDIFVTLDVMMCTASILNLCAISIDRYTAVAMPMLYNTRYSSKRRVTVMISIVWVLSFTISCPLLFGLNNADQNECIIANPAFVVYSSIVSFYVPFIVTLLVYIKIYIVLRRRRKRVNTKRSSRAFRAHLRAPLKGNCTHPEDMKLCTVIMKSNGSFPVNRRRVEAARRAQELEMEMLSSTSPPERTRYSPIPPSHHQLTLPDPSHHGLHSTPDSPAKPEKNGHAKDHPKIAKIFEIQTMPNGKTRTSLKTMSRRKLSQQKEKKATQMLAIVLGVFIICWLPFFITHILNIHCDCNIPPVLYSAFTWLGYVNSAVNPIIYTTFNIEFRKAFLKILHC

| SMILES | Tmax [1] [h] | less potent at the human D2 receptor compared to the parent (human D2 receptor) | MPZA formation as a function of pH [2] |
| --- | --- | --- | --- |
| CS(=O)(=O)c1ccc2c(c1)N(CCCN1CCC(C(N)=O)CC1)c1ccccc1S2 [MPZ, metopimazine] | 3 |  |  |
| CS(=O)(=O)c1ccc2c(c1)N(CCCN1CCC(C(=O)O)CC1)c1ccccc1S2 [MPZA, metopimazine acid] |  | about 200 fold | faster the higher the pH; also recorded: maximal at the highest pH tested, pH 9.4; also recorded: occurs at all pHs and increases at pHs above physiologic pH |
